Measurements reported in patent US20240217978A1 (CHONG KUN DANG PHARMACEUTICAL CORP., priority 2021, published 2024).

Biological target: human adenosine A2a receptor (Homo sapiens (Human), UniProt P29274)
Experiment: A2a receptor binding affinity, [3H]-NECA radioligand binding test
Conditions: [3H]-NECA 37 nM; membrane from HEK-293 cells transfected with human adenosine A2a receptor
Protocol: The binding affinity of the compounds according to Examples of the present invention to the human adenosine A2a receptor was evaluated by entrusting SB drug discovery in the UK.
A radioligand binding test was conducted by using [3H]-NECA (5′-N-[adenine-2,8-3H]-ethylcarboxamidoadenosine) and an adenosine A2a membrane. As the adenosine A2a membrane, a cell membrane prepared from HEK-293 cells transfected with human adenosine A2a receptor was used. The membrane used for the test was prepared by incubating with a radioligand until equilibrium was reached. In order to separate the radioligand-bound membrane, the unbound radioligand was separated by using Packard filtermate Harverster and glass filter plates.
10 μL of test compound dissolved in binding buffer (50 mM Tris, 10 mM MgCl2, 1 mM EDTA pH 7.4) and 20 μL of [3H]-NECA (final concentration of 37 nM) or reference inhibitor was mixed with 20 μL of A2a membrane in an unbound 96-well plate and incubated at room temperature for one hour. Prior to filtration, a 96-well harvest filter plate was coated with 0.33% polyethylenimine for 30 minutes and then washed with assay buffer. The binding reaction was transferred to the filter plate and washed three times with wash buffer. The dish was then dried, scintillant was added, and radioactivity was counted in a scintillation counter (Topcount NXT, Packard).
The binding affinity IC50 (μM) for the human adenosine A2a receptor obtained according to the above experimental method is shown in the table below.

Sequence of human adenosine A2a receptor (P29274 whole entry): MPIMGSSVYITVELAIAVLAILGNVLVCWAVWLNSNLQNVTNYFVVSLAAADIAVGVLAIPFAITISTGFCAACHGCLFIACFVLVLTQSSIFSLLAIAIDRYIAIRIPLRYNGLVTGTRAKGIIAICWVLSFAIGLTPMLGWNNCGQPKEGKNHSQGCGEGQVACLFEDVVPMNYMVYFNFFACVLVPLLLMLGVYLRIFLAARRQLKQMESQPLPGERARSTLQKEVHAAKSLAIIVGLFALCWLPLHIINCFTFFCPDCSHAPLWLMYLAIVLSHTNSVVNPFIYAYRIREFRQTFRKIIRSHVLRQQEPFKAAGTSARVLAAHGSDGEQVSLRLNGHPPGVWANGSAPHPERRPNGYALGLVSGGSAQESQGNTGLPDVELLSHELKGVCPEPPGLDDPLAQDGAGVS

IC50 [nM]	Compound
15	CC[C@H](Nc1nc(N)n2nc(-c3ccco3)nc2n1)C(=O)N1CCN(CC(F)(F)F)CC1 [Example 211, (S)-2-((7-amino-2-(furan-2-yl)-[1,2,4]triazolo[1,5-a][1,3,5]triazin-5-yl)amino)-1-(4-(2,2,2-trifluoroethyl)piperazin-1-yl)butan-1-one]
30	C[C@H](Nc1nc(N)n2nc(-c3ccco3)nc2n1)C(=O)N1CCN(Cc2ccccc2)CC1 [Example 21, (S)-2-((7-amino-2-(furan-2-yl)-[1,2,4]triazolo[1,5-a][1,3,5]triazin-5-yl)amino)-1-(4-benzylpiperazin-1-yl)propan-1-one]
20	Nc1nc(N[C@@H](CN2CCOCC2)C(=O)N2CCN(c3ccc(F)cc3F)CC2)nc2nc(-c3ccco3)nn12 [Example 273]
10	CC[C@H](Nc1nc(N)n2nc(-c3ccco3)nc2n1)C(=O)N1CCN(CC(F)(F)C(F)F)CC1 [Example 358, (S)-2-((7-amino-2-(furan-2-yl)-[1,2,4]triazolo[1,5-a][1,3,5]triazin-5-yl)amino)-1-(4-(2,2,3,3-tetrafluoropropyl)piperazin-1-yl)butan-1-one]
7	Nc1nc(N2CCC[C@H]2C(=O)N2CCN(CC(F)(F)C(F)F)CC2)nc2nc(-c3ccco3)nn12 [Example 226, (S)-(1-(7-amino-2-(furan-2-yl)-[1,2,4]triazolo[1,5-a][1,3,5]triazin-5-yl)pyrrolidin-2-yl)(4-(2,2,3,3-tetrafluoropropyl)piperazin-1-yl)methanone]
0.08	CCC(C)[C@H](Nc1nc(N)n2nc(-c3ccco3)nc2n1)C(=O)N1CCN(c2ccc(F)cc2F)CC1 (stereo partly drawn) [Example 166, (2S)-2-((7-amino-2-(furan-2-yl)-[1,2,4]triazolo[1,5-a][1,3,5]triazin-5-yl)amino)-1-(4-(2,4-difluorophenyl)piperazin-1-yl)-3-methylpentan-1-one]
18	COCCN1CCN(C(=O)[C@@H](Nc2nc(N)n3nc(-c4ccco4)nc3n2)C(C)C)CC1 [Example 60, (S)-2-((7-amino-2-(furan-2-yl)-[1,2,4]triazolo[1,5-a][1,3,5]triazin-5-yl)amino)-1-(4-(2-methoxyethyl)piperazin-1-yl)-3-methylbutan-1-one]
8	CC[C@H](Nc1nc(N)n2nc(-c3ccco3)nc2n1)C(=O)N1CCN(c2ncccn2)CC1 [Example 346, (S)-2-((7-amino-2-(furan-2-yl)-[1,2,4]triazolo[1,5-a][1,3,5]triazin-5-yl)amino)-1-(4-(pyrimidin-2-yl)piperazin-1-yl)butan-1-one]
7	CCOC[C@H](Nc1nc(N)n2nc(-c3ccco3)nc2n1)C(=O)N1CCN(c2ncccn2)CC1 [Example 307, (S)-2-((7-amino-2-(furan-2-yl)-[1,2,4]triazolo[1,5-a][1,3,5]triazin-5-yl)amino)-3-ethoxy-1-(4-(pyrimidin-2-yl)piperazin-1-yl)propan-1-one]
10	CC(C)[C@H](Nc1nc(N)n2nc(-c3ccco3)nc2n1)C(=O)N1CCN(CC(C)(F)F)CC1 [Example 360, (S)-2-((7-amino-2-(furan-2-yl)-[1,2,4]triazolo[1,5-a][1,3,5]triazin-5-yl)amino)-1-(4-(2,2-difluoropropyl)piperazin-1-yl)-3-methylbutan-1-one]
21	COCCN1CCN(C(=O)[C@H](C)Nc2nc(N)n3nc(-c4ccco4)nc3n2)CC1 [Example 118, (S)-2-((7-amino-2-(furan-2-yl)-[1,2,4]triazolo[1,5-a][1,3,5]triazin-5-yl)amino)-1-(4-(2-methoxyethyl)piperazin-1-yl)propan-1-one]
7	COCCN1CCN(C(=O)[C@@H]2CCCN2c2nc(N)n3nc(-c4ccc(C)o4)nc3n2)CC1 [Example 91, (S)-(1-(7-amino-2-(5-methylfuran-2-yl)-[1,2,4]triazolo[1,5-a][1,3,5]triazin-5-yl)pyrrolidin-2-yl)(4-(2-methoxyethyl)piperazin-1-yl)methanone]
5	Nc1nc(N[C@@H](CO)C(=O)N2CCN(CC(F)(F)F)CC2)nc2nc(-c3ccco3)nn12 [Example 231, (S)-2-((7-amino-2-(furan-2-yl)-[1,2,4]triazolo[1,5-a][1,3,5]triazin-5-yl)amino)-3-hydroxy-1-(4-(2,2,2-trifluoroethyl)piperazin-1-yl)propan-1-one]

Continued, molecule first:

Compound	IC50 [nM]
COc1ccc(NC(=O)N2CCN(C(=O)[C@@H]3CCCN3c3nc(N)n4nc(-c5ccco5)nc4n3)CC2)cc1 [Example 62, 4-((7-amino-2-(furan-2-yl)-[1,2,4]triazolo[1,5-a][1,3,5]triazin-5-yl)-L-prolyl)-N-(4-methoxyphenyl)piperazin-1-carboxamide]	6
Nc1nc(N2CCC[C@H]2C(=O)N2CCC(CN3CCC(C(F)(F)F)CC3)CC2)nc2nc(-c3ccco3)nn12 [Example 331, (S)-(1-(7-amino-2-(furan-2-yl)-[1,2,4]triazolo[1,5-a][1,3,5]triazin-5-yl)pyrrolidin-2-yl)(4-((4-(trifluoromethyl)piperidin-1-yl)methyl)piperidin-1-yl)methanone]	10
Nc1nc(N2CCC[C@H]2C(=O)N2CCN(C(=O)C3(C(F)(F)F)CCC3)CC2)nc2nc(-c3ccco3)nn12 [Example 75]	9
CC(C)(F)CN1CCC(C2CCN(C(=O)[C@@H]3CCCN3c3nc(N)n4nc(-c5ccco5)nc4n3)CC2)CC1 [Example 245, (S)-(1-(7-amino-2-(furan-2-yl)-[1,2,4]triazolo[1,5-a][1,3,5]triazin-5-yl)pyrrolidin-2-yl)(1′-(2-fluoro-2-methylpropyl)-[4,4′-bipiperidin]-1-yl)methanone]	15
Nc1nc(N2CCC[C@H]2C(=O)N2CCN(Cc3ccc(F)cc3F)CC2)nc2oc(-c3ccco3)nc12 [Example 41, (S)-(1-(7-amino-2-(furan-2-yl)oxazolo[5,4-d]pyrimidin-5-yl)pyrrolidin-2-yl)(4-(2,4-difluorobenzyl)piperazin-1-yl)methanone]	13
Nc1nc(N2CCC[C@H]2C(=O)N2CCC(N3CCC(F)(F)CC3)CC2)nc2nc(-c3ccco3)nn12 [Example 391, (S)-(1-(7-amino-2-(furan-2-yl)-[1,2,4]triazolo[1,5-a][1,3,5]triazin-5-yl)pyrrolidin-2-yl)(4,4-difluoro-[1,4′-bipiperidin]-1′-yl) methanone]	7
Cc1ccc(-c2nc3nc(N4CCC[C@H]4C(=O)N4CCN(CC(C)(F)F)CC4)nc(N)n3n2)o1 [Example 311, (S)-(1-(7-amino-2-(5-methylfuran-2-yl)-[1,2,4]triazolo[1,5-a][1,3,5]triazin-5-yl)pyrrolidin-2-yl)(4-(2,2-difluoropropyl)piperazin-1-yl)methanone]	2
Nc1nc(N2CCC[C@H]2C(=O)N2CC(COc3ccccc3)C2)nc2nc(-c3ccco3)nn12 [Example 114, (S)-(1-(7-amino-2-(furan-2-yl)-[1,2,4]triazolo[1,5-a][1,3,5]triazin-5-yl)pyrrolidin-2-yl)(3-(phenoxymethyl)azetidin-1-yl)methanone]	8
Nc1nc(N2CCC[C@H]2C(=O)N2CCN(c3ncccc3C(F)(F)F)CC2)nc2nc(-c3ccco3)nn12 [Example 124, (S)-(1-(7-amino-2-(furan-2-yl)-[1,2,4]triazolo[1,5-a][1,3,5]triazin-5-yl)pyrrolidin-2-yl)(4-(3-(trifluoromethyl)pyridin-2-yl)piperazin-1-yl)methanone]	2
C[C@@H]1CN(CC(C)(C)F)CCN1C(=O)[C@@H]1CCCN1c1nc(N)n2nc(-c3ccco3)nc2n1 [Example 374, ((S)-1-(7-amino-2-(furan-2-yl)-[1,2,4]triazolo[1,5-a][1,3,5]triazin-5-yl)pyrrolidin-2-yl)((R)-4-(2-fluoro-2-methylpropyl)-2-methylpiperazin-1-yl) methanone]	0.8
Cc1ccc(-c2nc3nc(N4CCC[C@H]4C(=O)N4CCN(C5CCCCC5)CC4)nc(N)n3n2)o1 [Example 84, (S)-(1-(7-amino-2-(5-methylfuran-2-yl)-[1,2,4]triazolo[1,5-a][1,3,5]triazin-5-yl)pyrrolidin-2-yl)(4-cyclohexylpiperazin-1-yl)methanone]	14
CCC(F)(F)CN1CCN(C(=O)[C@@H]2CCCN2c2nc(N)c3nc(-c4ccco4)oc3n2)CC1 [Example 270, (S)-(1-(7-amino-2-(furan-2-yl)oxazolo[5,4-d]pyrimidin-5-yl)pyrrolidin-2-yl)(4-(2,2-difluorobutyl)piperazin-1-yl)methanone]	9
CC(F)(F)CN1CCC(C2CCN(C(=O)[C@@H]3CCCN3c3cc4nc(-c5ccco5)nn4c(N)n3)CC2)CC1 [Example 394, (S)-(1-(5-amino-2-(furan-2-yl)-[1,2,4]triazolo[1,5-c]pyrimidin-7-yl)pyrrolidin-2-yl)(1′-(2,2-difluoropropyl)-[4,4′-bipiperidin]-1-yl)methanone]	15
CC(F)(F)CN1CCN(C(=O)[C@@H]2CCCN2c2nc(N)n3nc(-c4ccco4)nc3n2)C2(CC2)C1 [Example 343, (S)-(1-(7-amino-2-(furan-2-yl)-[1,2,4]triazolo[1,5-a][1,3,5]triazin-5-yl)pyrrolidin-2-yl)(7-(2,2-difluoropropyl)-4,7-diazaspiro[2.5]octan-4-yl)methanone]	9
